Assay results from publication PMC5217690 (The Journal of Biological Chemistry, 2016).

How the values were obtained:
[1] = target: T1, TrmDSA (Staphylococcus aureus, UniProt Q2FHJ8); experiment: ITC; format: binding
T1 construct: gene trmD; full-length, N-terminal His tag (pET28b), expressed in E. coli BL21(DE3), tag kept
T1 sequence (Q2FHJ8 2-245): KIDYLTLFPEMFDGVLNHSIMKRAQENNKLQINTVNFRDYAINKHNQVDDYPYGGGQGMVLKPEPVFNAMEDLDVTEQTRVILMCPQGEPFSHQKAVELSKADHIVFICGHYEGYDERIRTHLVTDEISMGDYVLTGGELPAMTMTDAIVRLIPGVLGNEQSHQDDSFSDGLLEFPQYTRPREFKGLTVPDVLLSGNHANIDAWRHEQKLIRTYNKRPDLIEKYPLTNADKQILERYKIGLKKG

[2] = target: T2, TrmDEC (Escherichia coli, UniProt P0A873); experiment: ITC; format: binding
T2 construct: gene trmD; full-length, N-terminal His tag (pET28b), expressed in E. coli BL21(DE3), tag kept
T2 sequence (P0A873 2-255): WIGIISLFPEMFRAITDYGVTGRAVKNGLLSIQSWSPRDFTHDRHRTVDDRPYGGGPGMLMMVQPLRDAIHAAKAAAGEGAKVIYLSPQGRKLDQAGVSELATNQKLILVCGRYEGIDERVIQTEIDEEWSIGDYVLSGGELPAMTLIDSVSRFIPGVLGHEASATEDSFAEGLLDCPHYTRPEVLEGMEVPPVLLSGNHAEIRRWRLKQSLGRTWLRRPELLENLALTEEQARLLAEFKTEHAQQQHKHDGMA

In the case of C[S+](CC[C@H](N)C(=O)O)C[C@H]1O[C@@H](n2cnc3c(N)ncnc32)[C@H](O)[C@@H]1O (some centres unmarked) [AdoMet], the Kd [1] is reported as 121 µM and the Kd [2] is reported as 21.5 µM.
